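Following 48 hours of exposure in 96-well plates, responses at five concentrations were used to interpolate endpoints linearly. GI50: concentration for 50% inhibition of growth.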 Active and inactive are the calls of the source. Rule as the data show it: active = GI50 up to about 1.1 µM and inactive = higher.
How the values were obtained:
Assay in all cases: growth of human tumour cells (NCI), 48 h
[1] = system: M19-MEL
[2] = system: KM-20L2
[3] = system: SNB-78
[4] = system: HOP-18
[5] = system: XF498
[6] = system: LXFL 529
[7] = system: DLD-1
[8] = system: DMS-273
[9] = system: RXF 631

| Compound | GI50 [1] | GI50 [2] | GI50 [3] | GI50 [4] | GI50 [5] | GI50 [6] | GI50 [7] | GI50 [8] | GI50 [9] |
| --- | --- | --- | --- | --- | --- | --- | --- | --- | --- |
| CCOC(=O)NC(=O)c1cn(CCCCCCCCCCC(=O)NCCCN2CCN(CCCNC(=O)CCCCCCCCCCn3cc(C(=O)NC(=O)OCC)c(=O)[nH]c3=O)CC2)c(=O)[nH]c1=O | > 100 µM (inactive) | > 100 µM (inactive) | > 100 µM (inactive) | > 100 µM (inactive) | > 100 µM (inactive) | > 100 µM (inactive) | > 100 µM (inactive) | > 100 µM (inactive) |  |
| CC1=C(/C=C/C(C)=C/C2CC(N(C)C)=CC(=O)O2)C(C)(C)CCC1 (stereo unspecified) | 14.3 µM (inactive) |  | 19.5 µM (inactive) | 13.6 µM (inactive) | 12.4 µM (inactive) | 11.7 µM (inactive) | 15.3 µM (inactive) | 13.4 µM (inactive) | 13.1 µM (inactive) |
| Nc1nc(-c2ccc(Cl)c([N+](=O)[O-])c2)cs1 | > 100 µM (inactive) | > 100 µM (inactive) | 52.5 µM (inactive) | 35.4 µM (inactive) | 27.5 µM (inactive) | > 100 µM (inactive) | > 100 µM (inactive) | > 100 µM (inactive) | > 100 µM (inactive) |
| CCOC(=O)C(C)c1cc(C2(C)OCCO2)c(C)o1 (stereo unspecified) | > 100 µM (inactive) | > 100 µM (inactive) | > 100 µM (inactive) | > 100 µM (inactive) | > 100 µM (inactive) | > 100 µM (inactive) | > 100 µM (inactive) | > 100 µM (inactive) | > 100 µM (inactive) |
| COC(=O)C(CCC1(C)OCCO1)=[N+]=[N-] |  | > 100 µM (inactive) | > 100 µM (inactive) | > 100 µM (inactive) | > 100 µM (inactive) | > 100 µM (inactive) | > 100 µM (inactive) | > 100 µM (inactive) | > 100 µM (inactive) |
| COc1c(OC(C)=O)c(OC(C)=O)cc2c1-c1ccc(SC)c(=O)cc1C(NC(C)=O)CC2 (stereo unspecified) | 0.57 µM (active) | 0.7 µM (active) | 0.287 µM (active) | > 100 µM (inactive) | 1.04 µM (active) | 0.368 µM (active) | 0.908 µM (active) | 0.895 µM (active) |  |
| CCOC(=O)C1=C(C)N(NC(=O)Nc2ccccc2)C(=O)C1=P(c1ccccc1)(c1ccccc1)c1ccccc1 | 32.6 µM (inactive) | 40.6 µM (inactive) |  | 58.1 µM (inactive) | 31.8 µM (inactive) | 35.2 µM (inactive) | 33.6 µM (inactive) | 40.6 µM (inactive) |  |
| CCOC(=O)N(c1ccccc1)N(CC)C(=O)/C(C)=N/Nc1ccc([N+](=O)[O-])cc1 | 17.5 µM (inactive) | 17.1 µM (inactive) | 20.8 µM (inactive) | 19.7 µM (inactive) | 17.9 µM (inactive) | 16.6 µM (inactive) | 15.4 µM (inactive) | 15.6 µM (inactive) |  |
| Nc1ccc(/N=N/c2ccc(-c3ccc(/N=N/c4c(S(=O)(=O)O)cc5cc(S(=O)(=O)O)c(/N=N/c6ccc([N+](=O)[O-])cc6)c(N)c5c4O)cc3)cc2)c2cc(S(=O)(=O)O)ccc12 | > 100 µM (inactive) | > 100 µM (inactive) | > 100 µM (inactive) |  | > 100 µM (inactive) | > 100 µM (inactive) | > 100 µM (inactive) | > 100 µM (inactive) |  |
| c1cc(C2O[C@H]3CCCN3[C@@H]2c2ccncc2)ccn1 (stereo partly specified) | > 100 µM (inactive) | > 100 µM (inactive) | > 100 µM (inactive) |  | > 100 µM (inactive) | > 100 µM (inactive) | > 100 µM (inactive) | > 100 µM (inactive) |  |
| COc1ccc(C(O)c2cc(OC)c(OC)c(OC)c2)cc1 (stereo unspecified) | 21 µM (inactive) |  | 44.4 µM (inactive) | 39 µM (inactive) |  | 40.9 µM (inactive) | 38.2 µM (inactive) | 4.21 µM (inactive) | 30.1 µM (inactive) |

Source: ChEMBL document CHEMBL1201862, “PubChem BioAssay data set” (2004)
